From patent US9580463B2 (BRISTOL-MYERS SQUIBB COMPANY, priority 2013, dated 2017) come the findings set out here.

Structures are written as SMILES. Read-outs that look alike come from different tables or passages of the source.

For data set [1] the following is noted: rcm bond, 15-membered ring, Hoveyda-Grubbs II, DCE, 80.0 °C.
In data set [2] the test system is HCV genotype 1a (H77 strain) replicon in HUH-7 cells. The data set is described as follows: HCV replicon luciferase reporter assay, genotype 1a. The class given is cell-based. The conditions noted are these: Hepatitis C virus, 72 h, genotype 1a replicon, 3 days incubation. The essentials:
(§1)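 Twenty-point, threefold compound titrations (0.5% DMSO) were incubated 3 days at 37 °C with 3.0×10^3 HUH-7 cells/well in 4% FCS. The cells stably carried luciferase replicons: genotype 1b Con1 (S1179I) or 1a H77 (NS3 P1496L, NS5A S2204I). Renilla signal was read after 2 h with 7.5 μM EnduRen, and EC50 was taken from a four-parameter logistic fit. Cytotoxicity (CC50) was measured by Cell Titer-Blue, 8 h.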
A general note: Replicon systems follow genome replication, usually without infectious particles.

Data set [3] concerns HCV genotype 1b (Con1) replicon in HUH-7 cells. The data set is described as follows: HCV replicon luciferase reporter assay, genotype 1b. The class given is cell-based. The conditions noted are these: Hepatitis C virus, 72 h, genotype 1b replicon, 3 days incubation. The essentials: as §1

For `COC[C@@H]1CC(C)CC/C=C\[C@@H]2C[C@@]2(C(=O)NS(=O)(=O)C2(C)CC2)NC(=O)[C@@H]2C[C@@H](O)CN2C(=O)[C@H]1NC(=O)OC(C)(C)C` (stereo partly shown), in data set [1] (from C=CCCC(C)C[C@@H](COC)[C@H](NC(=O)OC(C)(C)C)C(=O)N1C[C@H](O)C[C@H]1C(=O)N[C@]1(C(=O)NS(=O)(=O)C2(C)CC2)C[C@H]1C=C, 7.5 mM), the ring closure, isolated yield is 76%.

Molecule `COC[C@@H]1CC(C)CC/C=C\[C@@H]2C[C@@]2(C(=O)NS(=O)(=O)C2CC2)NC(=O)[C@@H]2C[C@@H](O)CN2C(=O)[C@H]1NC(=O)OC(C)(C)C` (stereo partly shown) had a ring closure, isolated yield in data set [1] (from C=CCCC(C)C[C@@H](COC)[C@H](NC(=O)OC(C)(C)C)C(=O)N1C[C@H](O)C[C@H]1C(=O)N[C@]1(C(=O)NS(=O)(=O)C2CC2)C[C@H]1C=C, 9.2 mM, 4.0 h) of 71%.

Take `COC[C@@H]1C[C@@H](C)CC/C=C\[C@@H]2C[C@@]2(C(=O)NS(=O)(=O)C2(C)CC2)NC(=O)[C@@H]2C[C@@H](Oc3nc4cc(OC)ccc4nc3C(F)(F)F)CN2C(=O)[C@H]1NC(=O)OC(C)(C)C(F)(F)F` [Compound 1031, 1,1,1-trifluoro-2-methylpropan-2-yl ((2R,6S,7R,9S,13aS,14aR,16aS,Z)-2-((7-methoxy-3-(trifluoromethyl)quinoxalin-2-yl)oxy)-7-(methoxymethyl)-9-methyl-14a-(((1-methylcyclopropyl)sulfonyl)carbamoyl)-5,16-dioxo-1,2,3,5,6,7,8,9,10,11,13a,14,14a,15,16,16a-hexadecahydrocyclopropa[e]pyrrolo[1,2-a][1,4]diazacyclopentadecin-6-yl)carbamate]: the EC50 in data set [2] (read-out: LE_1a (EC50, range)) lay within 5.01 to 35 nM; in data set [3] (read-out: LE_1b (EC50, range)) it was 1.01 to 5 nM.

Take `COC[C@@H]1C[C@H](C)CC/C=C\[C@@H]2C[C@@]2(C(=O)NS(=O)(=O)C2(C)CC2)NC(=O)[C@@H]2C[C@@H](Oc3nc4cc(OC)ccc4nc3C(F)(F)F)CN2C(=O)[C@H]1NC(=O)OC(C)(C)C(F)(F)F` [Compound 1032, 1,1,1-trifluoro-2-methylpropan-2-yl ((2R,6S,7R,9R,13aS,14aR,16aS,Z)-2-((7-methoxy-3-(trifluoromethyl)quinoxalin-2-yl)oxy)-7-(methoxymethyl)-9-methyl-14a-(((1-methylcyclopropyl)sulfonyl)carbamoyl)-5,16-dioxo-1,2,3,5,6,7,8,9,10,11,13a,14,14a,15,16,16a-hexadecahydrocyclopropa[e]pyrrolo[1,2-a][1,4]diazacyclopentadecin-6-yl)carbamate]: the EC50 in data set [2] (read-out: LE_1a (EC50, range)) fell in the range of 0.51 to 1 nM; in data set [3] (read-out: LE_1b (EC50, range)), 0.1 to 0.5 nM.

With `COC[C@@H]1C[C@@H](C)CC/C=C\[C@@H]2C[C@@]2(C(=O)NS(=O)(=O)C2(C)CC2)NC(=O)[C@@H]2C[C@@H](Oc3nc4cc(OC)ccc4nc3C(C)C)CN2C(=O)[C@H]1NC(=O)OC(C)(C)C(F)(F)F` [Compound 1033, 1,1,1-trifluoro-2-methylpropan-2-yl ((2R,6S,7R,9S,13aS,14aR,16aS,Z)-2-((3-isopropyl-7-methoxyquinoxalin-2-yl)oxy)-7-(methoxymethyl)-9-methyl-14a-(((1-methylcyclopropyl)sulfonyl)carbamoyl)-5,16-dioxo-1,2,3,5,6,7,8,9,10,11,13a,14,14a,15,16,16a-hexadecahydrocyclopropa[e]pyrrolo[1,2-a][1,4]diazacyclopentadecin-6-yl)carbamate], the EC50 lay in the range of 5.01 to 35 nM in data set [2] (read-out: LE_1a (EC50, range)) and 1.01 to 5 nM in data set [3] (read-out: LE_1b (EC50, range)).

On to `COC[C@@H]1C[C@H](C)CC/C=C\[C@@H]2C[C@@]2(C(=O)NS(=O)(=O)C2(C)CC2)NC(=O)[C@@H]2C[C@@H](Oc3nc4cc(OC)ccc4nc3C(C)C)CN2C(=O)[C@H]1NC(=O)OC(C)(C)C(F)(F)F` [Compound 1034, 1,1,1-trifluoro-2-methylpropan-2-yl ((2R,6S,7R,9R,13aS,14aR,16aS,Z)-2-((3-isopropyl-7-methoxyquinoxalin-2-yl)oxy)-7-(methoxymethyl)-9-methyl-14a-(((1-methylcyclopropyl)sulfonyl)carbamoyl)-5,16-dioxo-1,2,3,5,6,7,8,9,10,11,13a,14,14a,15,16,16a-hexadecahydrocyclopropa[e]pyrrolo[1,2-a][1,4]diazacyclopentadecin-6-yl)carbamate], for which the EC50 fell in the range of 1.01 to 5 nM in data set [2] (read-out: LE_1a (EC50, range)) and 0.51 to 1 nM in data set [3] (read-out: LE_1b (EC50, range)).

In the case of `COC[C@@H]1C[C@H](C)CC/C=C\[C@@H]2C[C@@]2(C(=O)NS(=O)(=O)C2(CF)CC2)NC(=O)[C@@H]2C[C@@H](Oc3nc4cc(OC)ccc4nc3C(F)(F)F)CN2C(=O)[C@H]1NC(=O)OC(C)(C)C` [Compound 1035, tert-butyl ((2R,6S,7R,9R,13aS,14aR,16aS,Z)-14a-(((1-(fluoromethyl)cyclopropyl)sulfonyl)carbamoyl)-2-((7-methoxy-3-(trifluoromethyl)quinoxalin-2-yl)oxy)-7-(methoxymethyl)-9-methyl-5,16-dioxo-1,2,3,5,6,7,8,9,10,11,13a,14,14a,15,16,16a-hexadecahydrocyclopropa[e]pyrrolo[1,2-a][1,4]diazacyclopentadecin-6-yl)carbamate], the EC50 lay in the range of 1.01 to 5 nM in data set [2] (read-out: LE_1a (EC50, range)) and 1.01 to 5 nM in data set [3] (read-out: LE_1b (EC50, range)).

Regarding `COC[C@@H]1C[C@H](C)CC/C=C\[C@@H]2C[C@@]2(C(=O)NS(=O)(=O)C2(CF)CC2)NC(=O)[C@@H]2C[C@@H](Oc3nc4cc(OC)ccc4nc3C(F)(F)F)CN2C(=O)[C@H]1NC(=O)OC(C)(C)C(F)(F)F` [Compound 1037, 1,1,1-trifluoro-2-methylpropan-2-yl ((2R,6S,7R,9R,13aS,14aR,16aS,Z)-14a-(((1-(fluoromethyl)cyclopropyl)sulfonyl)carbamoyl)-2-((7-methoxy-3-(trifluoromethyl)quinoxalin-2-yl)oxy)-7-(methoxymethyl)-9-methyl-5,16-dioxo-1,2,3,5,6,7,8,9,10,11,13a,14,14a,15,16,16a-hexadecahydrocyclopropa[e]pyrrolo[1,2-a][1,4]diazacyclopentadecin-6-yl)carbamate], the concentration for a half-maximal effect (EC50) in data set [2] (read-out: LE_1a (EC50, range)) fell in the range of 1.01 to 5 nM; in data set [3] (read-out: LE_1b (EC50, range)), 1.01 to 5 nM.

Consider `COC[C@@H]1C[C@@H](C)CC/C=C\[C@@H]2C[C@@]2(C(=O)NS(=O)(=O)C2(CF)CC2)NC(=O)[C@@H]2C[C@@H](Oc3nc4cc(OC)ccc4nc3C(F)(F)F)CN2C(=O)[C@H]1NC(=O)OC(C)(C)C(F)(F)F` [Compound 1038, 1,1,1-trifluoro-2-methylpropan-2-yl ((2R,6S,7R,9S,13aS,14aR,16aS,Z)-14a-(((1-(fluoromethyl)cyclopropyl)sulfonyl)carbamoyl)-2-((7-methoxy-3-(trifluoromethyl)quinoxalin-2-yl)oxy)-7-(methoxymethyl)-9-methyl-5,16-dioxo-1,2,3,5,6,7,8,9,10,11,13a,14,14a,15,16,16a-hexadecahydrocyclopropa[e]pyrrolo[1,2-a][1,4]diazacyclopentadecin-6-yl)carbamate], for which the 50% effective concentration (EC50) in data set [2] (read-out: LE_1a (EC50)) was 35 nM; in data set [2] (read-out: LE_1a (EC50, range)) it was 35 to 620 nM; in data set [3] (read-out: LE_1b (EC50)), 14.7 nM; in data set [3] (read-out: LE_1b (EC50, range)), 5.01 to 35 nM.

As for `COC[C@@H]1C[C@H](C)CC/C=C\[C@@H]2C[C@@]2(C(=O)NS(=O)(=O)C2(CF)CC2)NC(=O)[C@@H]2C[C@@H](Oc3nc4cc(OC)ccc4nc3C(C)C)CN2C(=O)[C@H]1NC(=O)OC(C)(C)C(F)(F)F` [Compound 1039], the EC50 fell in the range of 5.01 to 35 nM in data set [2] (read-out: LE_1a (EC50, range)) and 1.01 to 5 nM in data set [3] (read-out: LE_1b (EC50, range)).

For the molecule `COC[C@@H]1C[C@@H](C)CC/C=C\[C@@H]2C[C@@]2(C(=O)NS(=O)(=O)C2(CF)CC2)NC(=O)[C@@H]2C[C@@H](Oc3nc4cc(OC)ccc4nc3C(C)C)CN2C(=O)[C@H]1NC(=O)OC(C)(C)C(F)(F)F` [Compound 1040, 1,1,1-trifluoro-2-methylpropan-2-yl ((2R,6S,7R,9S,13aS,14aR,16aS,Z)-14a-(((1-(fluoromethyl)cyclopropyl)sulfonyl)carbamoyl)-2-((3-isopropyl-7-methoxyquinoxalin-2-yl)oxy)-7-(methoxymethyl)-9-methyl-5,16-dioxo-1,2,3,5,6,7,8,9,10,11,13a,14,14a,15,16,16a-hexadecahydrocyclopropa[e]pyrrolo[1,2-a][1,4]diazacyclopentadecin-6-yl)carbamate], the EC50 in data set [2] (read-out: LE_1a (EC50, range)) lay within 35 to 620 nM; in data set [3] (read-out: LE_1b (EC50, range)), 35 to 620 nM.

Take `COC[C@@H]1C[C@H](C)CC/C=C\[C@@H]2C[C@@]2(C(=O)NS(=O)(=O)C2CC2)NC(=O)[C@@H]2C[C@@H](Oc3nc4cc(OC)ccc4nc3C(F)(F)F)CN2C(=O)[C@H]1NC(=O)OC(C)(C)C(F)(F)F` [Compound 1041, 1,1,1-trifluoro-2-methylpropan-2-yl ((2R,6S,7R,9R,13aS,14aR,16aS,Z)-14a-((cyclopropylsulfonyl)carbamoyl)-2-((7-methoxy-3-(trifluoromethyl)quinoxalin-2-yl)oxy)-7-(methoxymethyl)-9-methyl-5,16-dioxo-1,2,3,5,6,7,8,9,10,11,13a,14,14a,15,16,16a-hexadecahydrocyclopropa[e]pyrrolo[1,2-a][1,4]diazacyclopentadecin-6-yl)carbamate]: the EC50 in data set [2] (read-out: LE_1a (EC50)) was 0.61 nM; in data set [2] (read-out: LE_1a (EC50, range)), 0.51 to 1 nM; in data set [3] (read-out: LE_1b (EC50)), 0.75 nM; in data set [3] (read-out: LE_1b (EC50, range)), 0.51 to 1 nM.

`COC[C@@H]1C[C@@H](C)CC/C=C\[C@@H]2C[C@@]2(C(=O)NS(=O)(=O)C2CC2)NC(=O)[C@@H]2C[C@@H](Oc3nc4cc(OC)ccc4nc3C(F)(F)F)CN2C(=O)[C@H]1NC(=O)OC(C)(C)C(F)(F)F` [Compound 1042, 1,1,1-trifluoro-2-methylpropan-2-yl ((2R,6S,7R,9S,13aS,14aR,16aS,Z)-14a-((cyclopropylsulfonyl)carbamoyl)-2-((7-methoxy-3-(trifluoromethyl)quinoxalin-2-yl)oxy)-7-(methoxymethyl)-9-methyl-5,16-dioxo-1,2,3,5,6,7,8,9,10,11,13a,14,14a,15,16,16a-hexadecahydrocyclopropa[e]pyrrolo[1,2-a][1,4]diazacyclopentadecin-6-yl)carbamate]: the EC50 is 5.01 to 35 nM in data set [2] (read-out: LE_1a (EC50, range)) and 1.01 to 5 nM in data set [3] (read-out: LE_1b (EC50, range)).

In general, EC50 refers to the concentration giving half of the maximal effect.
